Where two headings read alike, the source gives them in different places.
Key:
[1] = test system: phosphorylation of MEK1/2 (Ser217/221) in MIA PaCa-2 cells (KRAS G12C); test: MEK phosphorylation (Western blot) in MIA PaCa-2 cells; type: cell-based, human; settings: MIA PaCa-2, 2D; 25 nM trametinib alone or with 1 μM I-13; 2 h, 4 h, 8 h
Description: ERK and MEK Phosphorylation to Investigate the Combinatorial Effect of SOS1 Inhibitors with MEK Inhibitors
ERK and MEK phosphorylation assays are also used to investigate combinatorial effects of SOS1 inhibitors with MEK inhibitors, e.g. in MIA PaCa-2 cells.
• 96-well Ultra low binding plates from Corning (CLS2474-24EA); • DMEM (Lonza BE12-604F); • Fetal Bovine Serum (FBS) from HyClone (SH30071.03); • Cell lysate buffer (CLB):10× (Cell Signaling, Cat #9803)
For lysis of the cells a 1.2 fold concentrated CLB is used including the following supplements: 120 μL Cell Lysis Buffer 10×(Cell Signaling, Cat #9803)+870 μL H2O is supplemented with 10 μL HALT Protease & Phosphatase Inhibitor Cocktail (Thermo Scientific, Prod #1861281)+1 μL PMSF Stock sol. (Sigma, Cat #P7626) […]
ImageQuant LAS 4000 is used to induce a Chemilumescence signal that is detected with an Amersham Hyperfilm MP (GE Healthcare, Cat #28906847). […] Band quantification is performed by using the software “Image Quant TL” from GE Health.
MIA PaCa-2 cells are seeded at 1.16×E6 cells per 6 well plate in 2 mL DMEM medium supplemented with 2% FCS in 6 well plates. […] The protein concentration of the cell lysate is quantified by Bradford protein assay according to the manufacturer's instructions. […]
. Cell lysate was generated at the respective timepoints and the effect on ERK or MEK phosphorylation was analysed using Western-blotting. […]

[2] = test system: KRAS G12C mutant MIA PaCa-2 pancreatic xenograft; type: in vivo, mouse; settings: monotherapy
Experimental: In Vivo Efficacy Experiments
Cultures are incubated at 37° C. and 5% CO2 in a humidified atmosphere, with medium change or subcultivation performed 2-3 times a week. For injection tumor cells are mixed with PBS including 5% FCS and Matrigel in a ratio of 1:1. 1×10EXP7 cells in a volume of 100 μL are injected subcutaneous in each mouse to establish tumors. […] The vehicle control, trametinib, 1-13 or the respective combination is administered intragastrically using a gavage needle at an application volume of 10 mL/kg in a volume of 10 mL/kg per mouse daily twice with a 6 h difference. Trametinib is dissolved in 0.5% DMSO and 0.5% Natrosol. Paclitaxel is formulated in 0.9% NaCl and is applied intravenously once a week at 10 mg/kg in a volume of 10 mL/kg. […]
Standardized irradiated diet (PROVIMI KLIBA) and autoclaved tap water are provided ad libitum. Microchips implanted subcutaneously under isoflurane anesthesia are used to identify each mouse. Cage cards showing the study number, the animal number, the compound and dose level, the administration route as well as the schedule remain with the animals throughout the study. The tumor diameter is measured two-three times a week with a caliper. The volume of each tumor [in mm^3] is calculated according to the formula “tumor volume=length*diameter2*π/6”. To monitor side effects of treatment, mice are inspected daily for abnormalities and body weight is determined daily. Animals are sacrificed at the end of the study. Animals with necrotic tumors or tumor sizes exceeding 1500 mm^3 are sacrificed early during the study for ethical reasons.
All compounds were applied twice daily per os (p.o.).

[3] = test system: phosphorylation of ERK1/2 (Thr202/Tyr204) in MIA PaCa-2 cells (KRAS G12C); settings: MIA PaCa-2, 2D; 50 nM trametinib
Experimental: Secondary Antibody (incubated 1 h at room temperature): Use a blocking buffer with a 1:1000 dilution of the anti-Rabbit IgG-HRP (Dako, Cat #P0448)
ECL Western Blotting Detection Reagents (GE Healthcare, Cat #RPN2106)
The film is developed with the device Protec Optimax. Band quantification is performed by using the software “Image Quant TL” from GE Health.
Cells are incubated over night at 37° C. with 5% CO2. The next day inhibitors are added with a HP D300 digital Dispenser. Following addition of the respective inhibitor the 6-well plate is incubated for 24 h, 48 h or 72 h, respectively. At the respective timepoint cells are lysed. […] Following this the lysate is centrifuged (16000 rpm, 4° C. for 15 minutes) and the supernatant is stored at −80° C. and used for subsequent steps. The protein concentration of the cell lysate is quantified by Bradford protein assay according to the manufacturer's instructions. […]

[4] = biological target: SOS1 and KRAS G12D (protein-protein interaction) (Homo sapiens, UniProt Q07889); test: KRAS::SOS1 AlphaScreen binding assay
Procedure, shortened: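 Compounds were tested in duplicate at 11 concentrations (1:5 serial from 100 μM, 1% DMSO). They were preincubated 30 min with final 10 nM KRAS G12D, 10 μM GDP and 5 nM GST-SOS1, then glutathione acceptor and streptavidin donor beads (10 μg/mL each) were added for 60 min at RT in the dark. AlphaScreen signal gave IC50 via 4-parameter logistic fit.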

[5] = test system: cleaved PARP in NCI-H358 (KRAS G12C) NSCLC cells; type: cell-based, human; settings: NCI-H358, 3D, 10% serum; 1 μM I-13, 125 nM afatinib, alone or combined; 24 h, 48 h, 72 h
[6] = assay buffer without EDTA (values not marked with an asterisk), read-out: IC50 (SOS1)
[7] = values marked with * in the table, read-out: IC50 (SOS1)
[8] = assay buffer with 100 μM EDTA (values marked with an asterisk), read-out: IC50 (SOS1)

**Q.** What does the source list for `CC(=O)Nc1cccc(-n2c(=O)n(C3CC3)c(=O)c3c(Nc4ccc(I)cc4F)n(C)c(=O)c(C)c32)c1` [trametinib]?
**A.** levels of phosphorylated MEK1/2 (Ser 217/221) [1]: increased levels of MEK1/2 (Ser 217/221); TGI ([2]; trametinib 0.05 mg/kg twice daily p.o.): 50%; tumor regressions ([2]; trametinib 0.125 mg/kg or 0.05 mg/kg twice daily p.o.): no regressions in any tumors; TGI ([2]; trametinib 0.125 mg/kg twice daily p.o.): 73%; reduction of ERK1/2 (Thr 202/Tyr 204) phosphorylation levels compared to untreated control cells [3]: 65-75%

**Q.** `Nc1ccn([C@@H]2O[C@H](CO)[C@@H](O)C2(F)F)c(=O)n1` [gemcitabine] was tested. Which TGI ([2]; gemcitabine 50 mg/kg q4d i.p.) did it give?
**A.** Its TGI is 4%.

**Q.** With `Cc1cccc([C@@H](C)Nc2nc(C)nc3ccc(C4CCOCC4)cc23)c1` [I-154] as the compound, how does the IC50 [4, 6] read?
**A.** Its IC50 is 43 nM.

**Q.** For `Cc1cccc([C@@H](C)Nc2nc(C)nc3cc(C)c(C4CCNCC4)cc23)c1` [I-176], which IC50 [4, 6] is on record?
**A.** Its IC50 is 46 nM.

**Q.** Which IC50 ([4]; read-out: IC50 (SOS1)) does the source give for `COc1cc2nc(C)nc(N[C@H](C)c3cc(N)cc(C(F)(F)F)c3)c2cc1[C@H]1CC[C@@H](C(=O)N(C)C)CC1` [I-356] here?
**A.** Its IC50 is 34 nM.

**Q.** Which IC50 ([4]; read-out: IC50 (SOS1)) does the source give for `Cc1nc(N[C@H](C)c2cc(N)cc(C(F)(F)F)c2)c2cc([C@H]3CC[C@H](C(=O)N(C)[C@H]4CCOC4)CC3)ccc2n1` [I-250] here?
**A.** The IC50 was 4 nM.

**Q.** With `Cc1nc(N[C@H](C)c2cccc(C(F)(F)F)c2)c2cc([C@]3(O)CC[C@H](O)CC3)cc(C)c2n1` [I-55] as the compound, how does the IC50 [4] read?
**A.** Its IC50 is 20 nM.

**Q.** For `Cc1cccc([C@@H](C)Nc2nc(C)nc3ccc([C@H]4CC[S@](=N)(=O)CC4)cc23)c1` [I-332], which IC50 [4, 7] is on record?
**A.** Its IC50 is 18 nM.

**Q.** How did the IC50 ([4]; read-out: IC50 (SOS1)) turn out when `COCC(=O)N1CCC(c2cc(C)c3nc(C)nc(N[C@H](C)c4cccc(C)c4)c3c2)CC1` [I-270] was run?
**A.** Its IC50 is 21 nM.

**Q.** How did the IC50 ([4]; read-out: IC50 (SOS1)) turn out when `COCC(=O)N1CCC(c2cc3c(N[C@H](C)c4cccc(C)c4)nc(C)nc3cc2OC)CC1` [I-282] was run?
**A.** Its IC50 is 20 nM.

**Q.** How did the IC50 ([4]; read-out: IC50 (SOS1)) turn out when `Cc1nc(N[C@H](C)c2cc(N)cc(C(F)(F)F)c2)c2cc([C@H]3CC[C@@H](C(=O)N(C)[C@H]4CCOC4)CC3)ccc2n1` [I-251] was run?
**A.** The IC50 was 10 nM.

**Q.** Which TGI ([2]; paclitaxel 10 mg/kg q7d i.v., day 22) does the source give for `CC(=O)O[C@H]1C(=O)[C@@]2(C)[C@H]([C@H](OC(=O)c3ccccc3)[C@]3(O)C[C@H](OC(=O)[C@H](O)[C@@H](NC(=O)c4ccccc4)c4ccccc4)C(C)=C1C3(C)C)[C@]1(OC(C)=O)CO[C@@H]1C[C@@H]2O` [paclitaxel] here?
**A.** Its TGI is 62%.

**Q.** Which IC50 [4, 7] does the source give for `Cc1cccc([C@@H](C)Nc2nc(C)nc3ccc(-c4ccn(CC(=O)N(C)C)c(=O)c4)cc23)c1` [I-340] here?
**A.** Its IC50 is 1 nM.

**Q.** `Cc1nc(N[C@H](C)c2cc(N)cc(C(F)(F)F)c2)c2cc(-c3ccc(=O)n(C)c3)c(C)cc2n1` [I-107] was tested. Which IC50 [4, 7] did it give?
**A.** Its IC50 is 4 nM.

**Q.** With `Cc1nc(N[C@H](C)c2cccc(C(F)(F)F)c2)c2cc([C@H]3CC[C@H](C(=O)N4CC(F)C4)CC3)ccc2n1` [I-231] as the compound, how does the IC50 ([4]; read-out: IC50 (SOS1)) read?
**A.** Its IC50 is 19 nM.

**Q.** How did the IC50 ([4]; read-out: IC50 (SOS1)) turn out when `COc1cc2nc(C)nc(N[C@H](C)c3cc(N)cc(C(F)(F)F)c3F)c2cc1[C@H]1CC[C@H](C(=O)N(C)C)CC1` [I-244] was run?
**A.** Its IC50 is 2 nM.

**Q.** For `Cc1nc(N[C@H](C)c2cc(N)cc(C(F)(F)F)c2C)c2cc(C3CCS(=O)(=O)CC3)ccc2n1` [I-317], which IC50 ([4]; read-out: IC50 (SOS1)) is on record?
**A.** Its IC50 is 4 nM.

**Q.** For `CONC(=O)CC(C)c1cc2c(N[C@H](C)c3cccc(C(F)(F)F)c3)nc(C)nc2cc1OC` (stereo partly drawn) [I-382], which IC50 ([4]; read-out: IC50 (SOS1)) is on record?
**A.** The IC50 was 16 nM.

**Q.** How did the IC50 [4, 8] turn out when `Cc1nc(N[C@H](C)c2cccc(C(F)(F)F)c2)c2cc(C3=CCNCC3)ccc2n1` [I-171] was run?
**A.** Its IC50 is 18 nM.

**Q.** For `COc1cc2nc(C)nc(N[C@H](C)c3cccc(C(F)(F)F)c3)c2cc1[C@]1(O)CC[C@@H](C(=O)N(C)CCO)CC1` [I-75], which IC50 [4] is on record?
**A.** The IC50 was 7 nM.

**Q.** With `Cc1cccc([C@@H](C)Nc2nc(C)nc3cc(C)c(C4CCN(C(C)C)CC4)cc23)c1` [I-288] as the compound, how does the IC50 [4, 6] read?
**A.** Its IC50 is 22 nM.

**Q.** Which IC50 ([4]; read-out: IC50 (SOS1)) does the source give for `COCCN1CCN(C(=O)[C@H]2CC[C@H](c3cc4c(N[C@H](C)c5cc(N)cc(C(F)(F)F)c5F)nc(C)nc4cc3OC)CC2)CC1` [I-246] here?
**A.** Its IC50 is 2 nM.

**Q.** How did the IC50 [4, 8] turn out when `Cc1nc(N[C@H](C)c2cccc(C(F)(F)F)c2)c2cc(C3CCNCC3)ccc2n1` [I-182] was run?
**A.** Its IC50 is 22 nM.

**Q.** Which “apoptosis induction (levels of cleaved PARP)” value [5] does the source give for `CN(C)C/C=C/C(=O)Nc1cc2c(Nc3ccc(F)c(Cl)c3)ncnc2cc1O[C@H]1CCOC1` [afatinib] here?
**A.** The value was “needed 48 h to show apoptosis induction”.

**Q.** Which IC50 [4, 6] does the source give for `COCC(=O)N1CCC(O)(c2ccc3nc(C)nc(N[C@H](C)c4cccc(C(F)(F)F)c4)c3c2)CC1` [I-49] here?
**A.** The IC50 was 9 nM.

**Q.** For `Cc1nc(N[C@H](C)c2cc(N)cc(C(F)(F)F)c2)c2cc([C@H]3CC[C@@H](C(=O)N4CCOCC4)CC3)ccc2n1` [I-235], which IC50 ([4]; read-out: IC50 (SOS1)) is on record?
**A.** Its IC50 is 8 nM.

**Q.** How did the IC50 ([4]; read-out: IC50 (SOS1), assay buffer without EDTA (values not marked with an asterisk)) turn out when `COc1cc2nc(C)nc(N[C@H](C)c3cccc(C(F)(F)F)c3)c2cc1C1(O)CCC(C(=O)N(C)C[C@H](C)O)CC1` (stereo partly drawn) [I-73] was run?
**A.** The IC50 was 41 nM.

**Q.** With `Cc1cccc([C@@H](C)Nc2nc(C)nc3ccc(C4CCS(=O)(=O)CC4)cc23)c1` [I-161] as the compound, how does the IC50 [4, 8] read?
**A.** The IC50 was 29 nM.

**Q.** With `Cc1cccc([C@@H](C)Nc2nc(C)nc3ccc([C@H]4CC[S@@](=N)(=O)CC4)cc23)c1` [I-331] as the compound, how does the IC50 [4, 7] read?
**A.** Its IC50 is 25 nM.

— US12053473B2, “Benzylamino substituted quinazolines and derivatives as SOS1 inhibitors” (priority 2016, dated 2024)
